How the values were obtained:
[1] = molecular target: T1, HCV polymerase (NS5B) type 1a (Hepatitis C virus genotype 1a, UniProt P26664); test: Assay of enzyme (HCV polymerase) inhibitory activity, type 1a enzyme; format: biochemical, HCV type 1a (cloned from the blood of patients)
T1 construct: made in house; host or cells: Escherichia coli (by the 'similar method' of the 1b enzyme)
Method in brief: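 IC50 values derive from radioactivity of newly synthesized RNA with versus without test compound. The enzyme was C-terminally truncated type 1a NS5B, 1.5 μg/ml, run 60 min at 25° C with 3H-UTP-labelled nucleotides.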

[2] = molecular target: T2, HCV polymerase (NS5B) type 1b (Hepatitis C virus genotype 1b, UniProt P26663); test: Assay of enzyme (HCV polymerase) inhibitory activity, type 1b enzyme; format: biochemical, HCV BK strain (type 1b)
T2 construct: a region encoding NS5B (J Virol 1991 March, 65(3), 1105-13, 544 amino acids after deletion of 47 amino acids on the C-terminal); 6xHis (C); made in house; host or cells: Escherichia coli
Method in brief: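 Polymerase activity was followed as radiolabelled UTP incorporation by E. coli-expressed, His-tagged NS5B of HCV type 1b lacking its last 47 residues. Conditions: 2 μM UTP, 50 μM other NTPs, Mg2+ buffer at pH 7.5, 25 °C for 60 min. Inhibition relative to compound-free reactions gave IC50.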

[3] = HCV polymerase inhibitory activity (IC50), 1a, type 1a enzyme 1.5 μg/ml, 25° C., 60 min
[4] = HCV polymerase inhibitory activity (IC50), 1b, type 1b enzyme 0.5 μg/ml, 25° C., 60 min
[5] = HCV polymerase inhibitory activity IC50, 1a, type 1a enzyme
[6] = HCV polymerase inhibitory activity IC50, 1b, type 1b enzyme

| Structure (SMILES) | IC50 [1, 3] | IC50 [2, 4] | IC50 [1, 5] | IC50 [2, 6] |
| --- | --- | --- | --- | --- |
| Cc1nc(N2CCN(S(=O)(=O)c3ccc(OC(F)(F)F)cc3)[C@@H](C(=O)NCc3ccc(C(C)C)cc3)C2)sc1C(=O)O [Example 322, 2-[(R)-3-(4-isopropyl-benzylcarbamoyl)-4-(4-trifluoromethoxy-benzenesulfonyl)-piperazin-1-yl]-4-methyl-thiazole-5-carboxylic acid] | < 100 nM | < 100 nM |  |  |
| CCC(F)(F)c1ccc(CNC(=O)[C@H]2CN(C(=O)Nc3csc(C)n3)CCN2S(=O)(=O)c2ccc(OC(F)(F)F)cc2)cc1 [Example 567, (R)-4-(4-trifluoromethoxy-benzenesulfonyl)-piperazine-1,3-dicarboxylic acid 3-[4-(1,1-difluoro-propyl)-benzylamide] 1-[(2-methyl-thiazol-4-yl)-amide]] | 100 to 1000 nM | < 100 nM |  |  |
| COc1ccc(S(=O)(=O)N2CCN(C(C)=O)C[C@@H]2C(=O)NCc2ccc(C(C)C)cc2)cc1Cl [Example 216, (R)-4-acetyl-1-(3-chloro-4-methoxy-benzenesulfonyl)-piperazine-2-carboxylic acid 4-isopropyl-benzylamide] | 100 to 1000 nM | 100 to 1000 nM |  |  |
| Cc1nc(N2CCN(S(=O)(=O)c3ccc(OC(F)(F)F)cc3)[C@@H](C(=O)NCc3ccc(C(C)C)cc3)C2)sc1C(N)=O [Example 340, (R)-4-(5-carbamoyl-4-methyl-thiazol-2-yl)-1-(4-trifluoromethoxy-benzenesulfonyl)-piperazine-2-carboxylic acid 4-isopropyl-benzylamide] | < 100 nM | < 100 nM |  |  |
| CCCc1ccc(CNC(=O)[C@H]2CN(c3nc(C)c(S(=O)(=O)NC)s3)CCN2S(=O)(=O)c2ccc(OC(F)(F)F)cc2)cc1 [Example 828, (R)-4-(4-methyl-5-methylsulfamoyl-thiazol-2-yl)-1-(4-trifluoromethoxy-benzenesulfonyl)-piperazine-2-carboxylic acid 4-propyl-benzylamide] |  |  | < 100 nM | < 100 nM |
| CC(C)(O)C#Cc1ncc2sc(N3CCN(S(=O)(=O)c4ccc(OC(F)(F)F)cc4)[C@@H](C(=O)NCc4ccc(OC(F)(F)F)cc4)C3)nc2n1 [Example 994, (R)-4-[5-(3-hydroxy-3-methyl-but-1-ynyl)-thiazolo[4,5-d]pyrimidin-2-yl]-1-(4-trifluoromethoxy-benzenesulfonyl)-piperazine-2-carboxylic acid 4-trifluoromethoxy-benzylamide] |  |  | < 100 nM | < 100 nM |
| CC(=O)N1CCN(S(=O)(=O)c2ccc(Cl)c(Cl)c2)C(C(=O)NCc2ccc(C(F)(F)F)cc2)C1 (centres unmarked) [Example 41, 4-acetyl-1-(3,4-dichloro-benzenesulfonyl)-piperazine-2-carboxylic acid 4-trifluoromethyl-benzylamide] | > 1000 nM | > 1000 nM |  |  |
| CCCc1ccc(CNC(=O)[C@H]2CN(C(C)=O)CCN2S(=O)(=O)c2ccc(C(C)C)cc2)cc1 [Example 294, (R)-4-acetyl-1-(4-isopropyl-benzenesulfonyl)-piperazine-2-carboxylic acid 4-propyl-benzylamide] | < 100 nM | < 100 nM |  |  |
| CCCc1ccc(S(=O)(=O)N2CCN(c3nc(C(=O)O)c(CO)s3)C[C@@H]2C(=O)NCc2ccc(C(C)C)cc2)cc1 [Example 535, 5-hydroxymethyl-2-[(R)-3-(4-isopropyl-benzylcarbamoyl)-4-(4-propyl-benzenesulfonyl)-piperazin-1-yl]-thiazole-4-carboxylic acid] | < 100 nM | < 100 nM |  |  |
| CCC(F)(F)c1ccc(CNC(=O)[C@H]2CN(c3cnc(CN(C)C)cn3)CCN2S(=O)(=O)c2ccc(OC(F)(F)F)cc2)cc1 [Example 595, (R)-5′-dimethylaminomethyl-4-(4-trifluoromethoxy-benzenesulfonyl)-3,4,5,6-tetrahydro-2H-[1,2′]bipyrazinyl-3-carboxylic acid 4-(1,1-difluoro-propyl)-benzylamide] | < 100 nM | < 100 nM |  |  |
| CC(=O)N1CCN(S(=O)(=O)c2ccc(OC(F)(F)F)cc2)[C@@H](C(=O)NCc2csc(-c3cccs3)n2)C1 [Example 599, (R)-4-acetyl-1-(4-trifluoromethoxy-benzenesulfonyl)-piperazine-2-carboxylic acid (2-thiophen-2-yl-thiazol-4-ylmethyl)-amide] | 100 to 1000 nM | > 1000 nM |  |  |
| O=C(NCc1ccc(OC(F)F)cc1)[C@H]1CN(c2nc3nc(C(F)(F)F)ncc3s2)CCN1S(=O)(=O)c1ccc(OC(F)(F)C(F)F)cc1 [Example 1015, (R)-1-[4-(1,1,2,2-tetrafluoro-ethoxy)-benzenesulfonyl]-4-(5-trifluoromethyl-thiazolo[4,5-d]pyrimidin-2-yl)-piperazine-2-carboxylic acid 4-difluoromethoxy-benzylamide] |  |  | < 100 nM | < 100 nM |
| O=C(O)Cn1ncc2sc(N3CCN(S(=O)(=O)c4ccc(OC(F)(F)F)cc4)[C@@H](C(=O)NCc4ccc(OC(F)(F)F)cc4)C3)nc2c1=O [Example 1106, {4-oxo-2-[(R)-4-(4-trifluoromethoxy-benzenesulfonyl)-3-(4-trifluoromethoxy-benzylcarbamoyl)-piperazin-1-yl]-4H-thiazolo[4,5-d]pyridazin-5-yl}-acetic acid] |  |  | < 100 nM | < 100 nM |
| O=C(NCc1ccc(OC(F)F)cc1)[C@H]1CN(c2nc3nc(Cl)ncc3s2)CCN1S(=O)(=O)c1ccc(OC(F)(F)F)cc1 [Example 931, (R)-4-(5-chloro-thiazolo[4,5-d]pyrimidin-2-yl)-1-(4-trifluoromethoxy-benzenesulfonyl)-piperazine-2-carboxylic acid 4-difluoromethoxy-benzylamide] |  |  | < 100 nM | < 100 nM |
| CCCc1ccc(CNC(=O)[C@H]2CN(c3ccc(N)cn3)CCN2S(=O)(=O)c2ccc(OC(F)(F)F)cc2)cc1 [Example 458, (R)-4-(5-amino-pyridin-2-yl)-1-(4-trifluoromethoxy-benzenesulfonyl)-piperazine-2-carboxylic acid 4-propyl-benzylamide] | < 100 nM | < 100 nM |  |  |
| CC(C)c1ccc(CNC(=O)[C@H]2CN(CCc3ccncc3)CCN2S(=O)(=O)c2ccc(C(F)(F)F)cc2)cc1 [Example 304, (R)-4-(2-pyridin-4-yl-ethyl)-1-(4-trifluoromethyl-benzenesulfonyl)-piperazine-2-carboxylic acid 4-isopropyl-benzylamide] | 100 to 1000 nM | 100 to 1000 nM |  |  |
| O=C(NCc1ccc(OC(F)(F)F)cc1)[C@H]1CN(c2nc3nn[nH]c(=O)c3s2)CCN1S(=O)(=O)c1ccc(OC(F)(F)F)cc1 [Example 785, (R)-4-(4-oxo-3,4-dihydro-thiazolo[4,5-d][1,2,3]triazin-6-yl)-1-(4-trifluoromethoxy-benzenesulfonyl)-piperazine-2-carboxylic acid 4-trifluoromethoxy-benzylamide] |  |  | < 100 nM | < 100 nM |
| CCC(F)(F)c1ccc(CNC(=O)[C@H]2CN(c3nc4nc(Cl)ncc4s3)CCN2S(=O)(=O)c2ccc(C(F)(F)F)cc2)cc1 [Example 902, (R)-4-(5-chloro-thiazolo[4,5-d]pyrimidin-2-yl)-1-(4-trifluoromethyl-benzenesulfonyl)-piperazine-2-carboxylic acid 4-(1,1-difluoro-propyl)-benzylamide] |  |  | < 100 nM | < 100 nM |
| CC(C)(C)c1ccc(CNC(=O)[C@H]2CN(c3ncc(CO)s3)CCN2S(=O)(=O)c2ccc(OC(F)(F)F)cc2)cc1 [Example 570, (R)-4-(5-hydroxymethyl-thiazol-2-yl)-1-(4-trifluoromethoxy-benzenesulfonyl)-piperazine-2-carboxylic acid 4-tert-butyl-benzylamide] | < 100 nM | < 100 nM |  |  |
| CCCc1ccc(CNC(=O)[C@H]2CN(c3nc4c(C(=O)O)n[nH]c(=O)c4s3)CCN2S(=O)(=O)c2ccc(CC)cc2)cc1 [Example 863, 2-[(R)-4-(4-ethyl-benzenesulfonyl)-3-(4-propyl-benzylcarbamoyl)-piperazin-1-yl]-7-oxo-6,7-dihydro-thiazolo[4,5-d]pyridazine-4-carboxylic acid] |  |  | < 100 nM | < 100 nM |
| CCC(F)(F)c1ccc(CNC(=O)[C@H]2CN(c3cnc4c(Cl)cccc4n3)CCN2S(=O)(=O)c2ccc(OC(F)(F)F)cc2)cc1 [Example 741, (R)-4-(5-chloro-quinoxalin-2-yl)-1-(4-trifluoromethoxy-benzenesulfonyl)-piperazine-2-carboxylic acid 4-(1,1-difluoro-propyl)-benzylamide] |  |  | 100 to 1000 nM | < 100 nM |
| Cc1cc(C(C)C)ccc1CNC(=O)[C@H]1CN(c2nc(C)c(C(=O)O)s2)CCN1S(=O)(=O)c1ccc(OC(F)(F)F)cc1 [Example 364, 2-[(R)-3-(4-isopropyl-2-methyl-benzylcarbamoyl)-4-(4-trifluoromethoxy-benzenesulfonyl)-piperazin-1-yl]-4-methyl-thiazole-5-carboxylic acid] | < 100 nM | < 100 nM |  |  |
